Biological target: T1, human TRPV3 (Homo sapiens, UniProt Q8NET8)
T1 construct: expressed in transfected cells; host or cells: HEK293
T1 sequence (Q8NET8 1-790): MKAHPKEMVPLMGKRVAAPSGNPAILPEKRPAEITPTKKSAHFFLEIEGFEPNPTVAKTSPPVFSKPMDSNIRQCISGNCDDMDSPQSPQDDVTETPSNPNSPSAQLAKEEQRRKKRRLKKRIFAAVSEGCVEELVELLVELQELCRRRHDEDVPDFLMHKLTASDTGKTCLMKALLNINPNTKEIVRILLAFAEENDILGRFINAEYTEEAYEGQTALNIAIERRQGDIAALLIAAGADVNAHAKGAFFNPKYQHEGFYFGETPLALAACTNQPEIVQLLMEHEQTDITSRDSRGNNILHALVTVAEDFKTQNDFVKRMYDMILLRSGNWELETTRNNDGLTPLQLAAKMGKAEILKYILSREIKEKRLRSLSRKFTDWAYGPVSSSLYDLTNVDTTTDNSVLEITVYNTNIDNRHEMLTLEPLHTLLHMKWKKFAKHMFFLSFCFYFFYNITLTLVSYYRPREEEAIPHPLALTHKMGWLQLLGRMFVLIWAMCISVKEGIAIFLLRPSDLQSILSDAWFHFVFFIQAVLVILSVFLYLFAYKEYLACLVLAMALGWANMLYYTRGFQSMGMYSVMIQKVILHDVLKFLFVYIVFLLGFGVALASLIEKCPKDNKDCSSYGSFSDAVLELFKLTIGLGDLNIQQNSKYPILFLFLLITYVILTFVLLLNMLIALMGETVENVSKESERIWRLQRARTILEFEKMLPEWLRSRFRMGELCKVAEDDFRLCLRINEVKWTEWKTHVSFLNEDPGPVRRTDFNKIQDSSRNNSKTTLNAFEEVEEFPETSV
Experiment: Calcium flux assay (FLIPR TETRA), recombinant HEK293 cells expressing TRPV3, 2-APB response
Assay type: cell-based
Settings: 2-APB at its EC80
Experimental: (i) In Vitro Methods-Calcium Flux Assays:
Experiments were conducted using the FLIPR TETRA®. On the day prior to the experiment, recombinant HEK293 cells that stably express human and mouse TRPV3 were removed from tissue culture flasks and plated in growth medium at 20,000 cells/well into black-walled clear-bottom 384-well BIOCOAT™ poly-D-lysine assay plates (BD Biosciences, Bedford, Mass.) using a MULTIDROP® dispenser (ThermoScientific, Waltham, Mass.). On the day of the experiment, growth medium was removed, and the no-wash FLIPR® Calcium-4 dye (λEX=470-495 nm, λEM=515-575 nm; Molecular Devices, Sunnyvale, Calif.) was added to each well using the MULTIDROP® dispenser. Cells were incubated for 90-120 minutes in the dark. The compounds were dissolved in DMSO to prepare a 10 mM stock solution. The intensity of the fluorescence was captured and digitally transferred to an interfaced PC. The peak increase in fluorescence over baseline, measured in relative fluorescence units, was calculated and expressed as the percentage of the maximal 2-APB (2-aminoethoxyldiphenyl borate) response (in the absence of compound). The concentration of 2-APB corresponds to its EC80.

Which IC50 does the source give for `CCc1sc(NC(=O)c2c(OC)ncnc2OC)nc1C(F)(F)F` [Example 6, N-[5-ethyl-4-(trifluoromethyl)-1,3-thiazol-2-yl]-4,6-dimethoxypyrimidine-5-carboxamide] here?
The IC50 was under 50 nM.

How did the IC50 turn out when `COc1ncnc(OC)c1C(=O)Nc1nc(C(F)(F)F)c(-c2cnc(N3CCOCC3)c(C#N)c2)s1` [Example 204, N-{5-[5-cyano-6-(morpholin-4-yl)pyridin-3-yl]-4-(trifluoromethyl)-1,3-thiazol-2-yl}-4,6-dimethoxypyrimidine-5-carboxamide] was run?
The IC50 was under 50 nM.

With `COc1ncnc(OC)c1C(=O)Nc1nc(C(F)(F)F)c(CNC2CCCC2)s1` [Example 51, N-{5-[(cyclopentylamino)methyl]-4-(trifluoromethyl)-1,3-thiazol-2-yl}-4,6-dimethoxypyrimidine-5-carboxamide] as the compound, how does the IC50 read?
The IC50 was 100 to 500 nM.

With “4,6-dimethoxy-N-[5-(2-methoxypyrimidin-5-yl)-4-(trifluoromethyl)-1,3-thiazol-2-yl]pyrimidine-5-carboxamide [Example 183]” as the compound, how does the IC50 read?
The IC50 was 100 to 500 nM.

For `COc1ncnc(OC)c1C(=O)Nc1nc(-c2ccc(C(F)F)cn2)cs1` [Example 94, N-{4-[5-(difluoromethyl)pyridin-2-yl]-1,3-thiazol-2-yl}-4,6-dimethoxypyrimidine-5-carboxamide], which IC50 is on record?
The IC50 was 100 to 500 nM.

Which IC50 does the source give for `CCn1cc(-c2sc(NC(=O)c3c(OC)ncnc3OC)nc2C(F)(F)F)c(C)n1` [Example 200, N-[5-(1-ethyl-3-methyl-1H-pyrazol-4-yl)-4-(trifluoromethyl)-1,3-thiazol-2-yl]-4,6-dimethoxypyrimidine-5-carboxamide] here?
Its IC50 is under 50 nM.

For `COc1ncnc(OC)c1C(=O)Nc1nc(C(F)(F)F)c(-c2cnc(N3CCOCC3)cn2)s1` [Example 29, 4,6-dimethoxy-N-{5-[5-(morpholin-4-yl)pyrazin-2-yl]-4-(trifluoromethyl)-1,3-thiazol-2-yl}pyrimidine-5-carboxamide], which IC50 is on record?
Its IC50 is 500 to 1000 nM.

For `COc1ncnc(OC)c1C(=O)Nc1nc(C(F)(F)F)c(C2(O)CCC2)s1` [Example 119, N-[5-(1-hydroxycyclobutyl)-4-(trifluoromethyl)-1,3-thiazol-2-yl]-4,6-dimethoxypyrimidine-5-carboxamide], which IC50 is on record?
The IC50 was over 1000 nM.

With `COc1ncnc(OC)c1C(=O)Nc1nc(C(F)(F)F)c(C(=O)C(C)(C)C)s1` [Example 124, N-[5-(2,2-dimethylpropanoyl)-4-(trifluoromethyl)-1,3-thiazol-2-yl]-4,6-dimethoxypyrimidine-5-carboxamide] as the compound, how does the IC50 read?
The IC50 was under 50 nM.

With `COc1ncnc(OC)c1C(=O)Nc1nc(CCOc2ccc(F)cc2)cs1` [Example 178, N-{4-[2-(4-fluorophenoxy)ethyl]-1,3-thiazol-2-yl}-4,6-dimethoxypyrimidine-5-carboxamide] as the compound, how does the IC50 read?
Its IC50 is 500 to 1000 nM.

`COc1ncnc(OC)c1C(=O)Nc1nc(C(F)(F)F)c(C2OCCCO2)s1` [Example 139, N-[5-(1,3-dioxan-2-yl)-4-(trifluoromethyl)-1,3-thiazol-2-yl]-4,6-dimethoxypyrimidine-5-carboxamide] was tested. Which IC50 did it give?
Its IC50 is 100 to 500 nM.

How did the IC50 turn out when `COc1ncnc(OC)c1C(=O)Nc1nc(-c2ccc(C(F)(F)F)cn2)c(/C(C)=N/O)s1` [Example 88, N-{5-[(1E)-N-hydroxyethanimidoyl]-4-[5-(trifluoromethyl)pyridin-2-yl]-1,3-thiazol-2-yl}-4,6-dimethoxypyrimidine-5-carboxamide] was run?
The IC50 was 50 to 100 nM.

How did the IC50 turn out when `COc1ncnc(OC)c1C(=O)Nc1nc(C(F)(F)F)c(C2=COCC2)s1` [Example 145, N-(5-(4,5-dihydrofuran-3-yl)-4-(trifluoromethyl)thiazol-2-yl)-4,6-dimethoxypyrimidine-5-carboxamide] was run?
Its IC50 is under 50 nM.

How did the IC50 turn out when `COc1ncnc(OC)c1C(=O)Nc1nc(C(F)(F)F)c(CCCO)s1` [Example 13, N-[5-(3-hydroxypropyl)-4-(trifluoromethyl)-1,3-thiazol-2-yl]-4,6-dimethoxypyrimidine-5-carboxamide] was run?
The IC50 was over 1000 nM.

For `COc1ncnc(OC)c1C(=O)Nc1nc(C2CCC2)c(C#N)s1` [Example 102, N-(5-cyano-4-cyclobutyl-1,3-thiazol-2-yl)-4,6-dimethoxypyrimidine-5-carboxamide], which IC50 is on record?
The IC50 was 100 to 500 nM.

From US20180243298A1, “TRPV3 MODULATORS” (AbbVie Inc., priority 2015, published 2018)
